Measurements reported in ChEMBL document CHEMBL5291721, “A preclinical secondary pharmacology resource illuminates target-adverse drug reaction associations of marketed drugs” (Nat Commun, 2023).

Assays:
[1] = target: Gamma-aminobutyric acid receptor subunit alpha-1 (Rattus norvegicus, UniProt P62813); type: functional
[2] = target: Sodium-dependent dopamine transporter (Homo sapiens, UniProt Q01959)
[3] = target: T1, Muscarinic acetylcholine receptor M2 (Homo sapiens, UniProt P08172); type: functional, cell-based
T1 sequence (P08172 whole entry): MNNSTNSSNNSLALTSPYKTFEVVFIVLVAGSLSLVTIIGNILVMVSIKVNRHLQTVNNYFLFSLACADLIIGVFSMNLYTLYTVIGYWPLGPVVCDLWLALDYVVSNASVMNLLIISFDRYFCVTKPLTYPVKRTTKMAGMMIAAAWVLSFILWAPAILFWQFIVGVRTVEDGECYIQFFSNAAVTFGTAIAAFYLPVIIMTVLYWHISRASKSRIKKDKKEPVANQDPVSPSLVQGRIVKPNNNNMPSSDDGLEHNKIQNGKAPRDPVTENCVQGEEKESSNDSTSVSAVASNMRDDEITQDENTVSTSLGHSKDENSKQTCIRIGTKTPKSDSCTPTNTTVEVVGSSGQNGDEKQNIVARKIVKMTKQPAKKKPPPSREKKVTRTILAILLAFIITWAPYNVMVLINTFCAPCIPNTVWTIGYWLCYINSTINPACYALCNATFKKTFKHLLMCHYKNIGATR

[4] = target: Delta-type opioid receptor (Homo sapiens, UniProt P41143)
[5] = target: 5-hydroxytryptamine receptor 2B (Homo sapiens, UniProt P41595); type: functional, cell-based
Progesterone receptor = target: T2, Progesterone receptor (Homo sapiens, UniProt P06401); type: functional
T2 sequence (P06401 whole entry): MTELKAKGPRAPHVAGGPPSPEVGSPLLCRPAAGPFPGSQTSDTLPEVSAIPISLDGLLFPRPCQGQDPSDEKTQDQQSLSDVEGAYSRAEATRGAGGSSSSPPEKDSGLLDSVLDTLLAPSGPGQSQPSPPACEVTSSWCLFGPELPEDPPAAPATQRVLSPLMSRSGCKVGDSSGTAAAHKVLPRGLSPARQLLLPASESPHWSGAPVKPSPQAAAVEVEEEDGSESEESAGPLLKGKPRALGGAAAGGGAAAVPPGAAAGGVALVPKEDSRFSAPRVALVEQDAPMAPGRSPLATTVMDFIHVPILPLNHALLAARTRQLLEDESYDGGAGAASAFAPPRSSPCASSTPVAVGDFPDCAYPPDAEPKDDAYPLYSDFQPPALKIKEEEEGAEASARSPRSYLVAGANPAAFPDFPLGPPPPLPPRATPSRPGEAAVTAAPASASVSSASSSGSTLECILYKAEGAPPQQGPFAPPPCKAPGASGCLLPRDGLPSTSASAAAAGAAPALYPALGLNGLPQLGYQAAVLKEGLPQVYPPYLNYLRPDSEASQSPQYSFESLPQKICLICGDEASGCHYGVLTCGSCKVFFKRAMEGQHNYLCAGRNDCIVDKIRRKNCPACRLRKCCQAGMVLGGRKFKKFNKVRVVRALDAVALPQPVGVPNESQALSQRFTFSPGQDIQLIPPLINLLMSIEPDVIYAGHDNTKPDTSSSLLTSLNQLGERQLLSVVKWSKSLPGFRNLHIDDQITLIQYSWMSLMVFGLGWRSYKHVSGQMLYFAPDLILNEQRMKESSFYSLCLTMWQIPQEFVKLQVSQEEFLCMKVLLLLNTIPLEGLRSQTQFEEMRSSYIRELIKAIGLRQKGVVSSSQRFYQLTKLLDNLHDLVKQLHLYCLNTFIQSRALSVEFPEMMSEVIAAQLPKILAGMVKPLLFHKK

Cannabinoid receptor 1 = Cannabinoid receptor 1 (Homo sapiens, UniProt P21554); type: functional, cell-based
[6] = target: 5-hydroxytryptamine receptor 2A (Homo sapiens, UniProt P28223); type: functional, cell-based
[7] = target: Sodium-dependent serotonin transporter (Homo sapiens, UniProt P31645)
[8] = target: cGMP-inhibited 3',5'-cyclic phosphodiesterase 3A (Homo sapiens, UniProt Q14432); type: functional
Endothelin-1 receptor = target: T3, Endothelin-1 receptor (Homo sapiens, UniProt P25101)
T3 sequence (P25101 whole entry): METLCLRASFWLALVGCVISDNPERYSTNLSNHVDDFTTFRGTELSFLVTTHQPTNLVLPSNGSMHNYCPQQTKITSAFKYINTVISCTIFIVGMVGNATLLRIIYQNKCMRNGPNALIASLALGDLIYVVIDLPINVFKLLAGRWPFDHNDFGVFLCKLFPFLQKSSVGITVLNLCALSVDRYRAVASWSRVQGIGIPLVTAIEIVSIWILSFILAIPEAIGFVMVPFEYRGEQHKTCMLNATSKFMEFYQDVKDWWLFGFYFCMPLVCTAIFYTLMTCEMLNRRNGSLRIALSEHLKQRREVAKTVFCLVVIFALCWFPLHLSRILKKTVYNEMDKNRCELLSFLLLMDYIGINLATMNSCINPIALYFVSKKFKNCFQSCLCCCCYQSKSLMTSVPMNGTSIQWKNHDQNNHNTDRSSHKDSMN

[9] = target: T4, Prostaglandin G/H synthase 1 (Rattus norvegicus, UniProt Q63921); type: functional
T4 sequence (Q63921 whole entry): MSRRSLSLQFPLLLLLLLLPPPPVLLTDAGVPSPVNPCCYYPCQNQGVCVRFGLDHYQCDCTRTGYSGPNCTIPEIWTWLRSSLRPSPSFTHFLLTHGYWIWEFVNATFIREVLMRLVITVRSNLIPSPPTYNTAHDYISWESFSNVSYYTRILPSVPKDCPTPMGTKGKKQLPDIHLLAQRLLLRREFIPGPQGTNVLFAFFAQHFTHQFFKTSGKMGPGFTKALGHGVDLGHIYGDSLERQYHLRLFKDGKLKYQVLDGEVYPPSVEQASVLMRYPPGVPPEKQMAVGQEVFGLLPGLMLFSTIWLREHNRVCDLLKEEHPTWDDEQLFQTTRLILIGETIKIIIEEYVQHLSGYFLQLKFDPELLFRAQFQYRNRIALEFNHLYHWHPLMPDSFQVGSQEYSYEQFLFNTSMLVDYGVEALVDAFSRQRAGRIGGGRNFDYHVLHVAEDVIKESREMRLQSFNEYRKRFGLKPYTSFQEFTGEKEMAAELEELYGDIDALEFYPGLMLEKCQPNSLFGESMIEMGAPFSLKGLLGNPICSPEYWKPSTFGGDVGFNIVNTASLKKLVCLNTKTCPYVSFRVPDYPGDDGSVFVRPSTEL
Also: assay procedure not described here.

Sodium-dependent dopamine transporter, sequence (Q01959 whole entry): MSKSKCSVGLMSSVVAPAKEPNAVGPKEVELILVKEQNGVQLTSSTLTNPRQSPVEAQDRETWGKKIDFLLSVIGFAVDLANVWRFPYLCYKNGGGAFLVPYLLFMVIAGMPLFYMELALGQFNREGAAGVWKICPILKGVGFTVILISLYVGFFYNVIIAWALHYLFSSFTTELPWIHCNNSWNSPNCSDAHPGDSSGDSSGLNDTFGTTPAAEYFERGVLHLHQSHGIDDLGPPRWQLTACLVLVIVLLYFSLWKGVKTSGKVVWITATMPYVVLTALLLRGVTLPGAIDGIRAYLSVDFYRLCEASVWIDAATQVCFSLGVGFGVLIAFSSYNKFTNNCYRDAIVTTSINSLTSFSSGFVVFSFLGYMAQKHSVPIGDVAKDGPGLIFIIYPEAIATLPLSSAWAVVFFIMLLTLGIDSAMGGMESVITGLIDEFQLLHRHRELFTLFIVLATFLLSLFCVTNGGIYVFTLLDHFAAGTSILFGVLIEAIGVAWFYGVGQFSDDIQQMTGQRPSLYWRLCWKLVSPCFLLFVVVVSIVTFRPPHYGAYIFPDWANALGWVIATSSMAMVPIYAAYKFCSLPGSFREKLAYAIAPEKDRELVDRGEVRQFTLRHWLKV
Delta-type opioid receptor, sequence (P41143 whole entry): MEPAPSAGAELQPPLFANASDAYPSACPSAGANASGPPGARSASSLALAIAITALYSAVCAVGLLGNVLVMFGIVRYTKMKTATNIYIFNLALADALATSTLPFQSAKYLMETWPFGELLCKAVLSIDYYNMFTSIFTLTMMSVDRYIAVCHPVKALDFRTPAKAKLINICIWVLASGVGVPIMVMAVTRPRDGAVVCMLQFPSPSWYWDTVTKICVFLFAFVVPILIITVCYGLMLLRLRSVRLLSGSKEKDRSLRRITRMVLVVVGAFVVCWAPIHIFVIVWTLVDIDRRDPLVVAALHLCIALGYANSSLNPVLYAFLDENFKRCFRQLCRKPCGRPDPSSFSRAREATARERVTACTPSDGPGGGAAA
Cannabinoid receptor 1, sequence (P21554 whole entry): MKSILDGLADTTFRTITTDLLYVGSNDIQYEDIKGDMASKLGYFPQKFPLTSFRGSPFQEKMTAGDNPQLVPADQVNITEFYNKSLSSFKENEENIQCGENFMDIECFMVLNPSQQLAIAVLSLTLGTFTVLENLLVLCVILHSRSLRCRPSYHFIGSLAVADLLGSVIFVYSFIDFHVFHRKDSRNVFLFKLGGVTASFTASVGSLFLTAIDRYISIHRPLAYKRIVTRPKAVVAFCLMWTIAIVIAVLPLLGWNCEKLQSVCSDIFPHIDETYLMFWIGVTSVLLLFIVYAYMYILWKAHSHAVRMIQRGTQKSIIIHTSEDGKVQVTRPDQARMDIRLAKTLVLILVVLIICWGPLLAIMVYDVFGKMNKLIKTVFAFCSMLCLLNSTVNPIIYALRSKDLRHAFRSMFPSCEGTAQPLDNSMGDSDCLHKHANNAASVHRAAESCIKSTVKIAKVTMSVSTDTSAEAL
Gamma-aminobutyric acid receptor subunit alpha-1, sequence (P62813 whole entry): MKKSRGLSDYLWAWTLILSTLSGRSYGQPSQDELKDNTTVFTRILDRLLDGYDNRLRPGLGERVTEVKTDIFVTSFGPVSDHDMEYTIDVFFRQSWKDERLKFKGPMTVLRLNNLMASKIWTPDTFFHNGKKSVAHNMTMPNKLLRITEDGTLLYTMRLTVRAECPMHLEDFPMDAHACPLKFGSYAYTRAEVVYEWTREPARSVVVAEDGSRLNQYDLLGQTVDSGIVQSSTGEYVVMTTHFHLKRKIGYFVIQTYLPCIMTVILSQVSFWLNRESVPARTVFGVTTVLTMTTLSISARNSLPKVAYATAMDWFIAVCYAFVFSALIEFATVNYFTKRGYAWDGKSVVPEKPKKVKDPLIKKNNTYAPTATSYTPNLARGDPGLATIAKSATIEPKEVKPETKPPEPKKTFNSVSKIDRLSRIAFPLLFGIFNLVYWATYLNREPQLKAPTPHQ
5-hydroxytryptamine receptor 2A, sequence (P28223 whole entry): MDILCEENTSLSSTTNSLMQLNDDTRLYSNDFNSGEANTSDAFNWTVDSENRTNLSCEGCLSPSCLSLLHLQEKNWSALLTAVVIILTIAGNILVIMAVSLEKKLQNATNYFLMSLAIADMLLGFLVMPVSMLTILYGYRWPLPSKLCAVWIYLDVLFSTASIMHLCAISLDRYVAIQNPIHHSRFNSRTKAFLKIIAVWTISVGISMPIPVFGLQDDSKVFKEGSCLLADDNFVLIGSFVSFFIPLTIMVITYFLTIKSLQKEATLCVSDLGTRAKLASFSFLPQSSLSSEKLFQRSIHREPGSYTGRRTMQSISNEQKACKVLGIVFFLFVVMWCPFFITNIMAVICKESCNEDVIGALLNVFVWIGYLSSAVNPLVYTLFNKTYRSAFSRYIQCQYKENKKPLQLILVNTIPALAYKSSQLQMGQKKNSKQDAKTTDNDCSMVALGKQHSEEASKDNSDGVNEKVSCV
cGMP-inhibited 3',5'-cyclic phosphodiesterase 3A, sequence (Q14432 whole entry): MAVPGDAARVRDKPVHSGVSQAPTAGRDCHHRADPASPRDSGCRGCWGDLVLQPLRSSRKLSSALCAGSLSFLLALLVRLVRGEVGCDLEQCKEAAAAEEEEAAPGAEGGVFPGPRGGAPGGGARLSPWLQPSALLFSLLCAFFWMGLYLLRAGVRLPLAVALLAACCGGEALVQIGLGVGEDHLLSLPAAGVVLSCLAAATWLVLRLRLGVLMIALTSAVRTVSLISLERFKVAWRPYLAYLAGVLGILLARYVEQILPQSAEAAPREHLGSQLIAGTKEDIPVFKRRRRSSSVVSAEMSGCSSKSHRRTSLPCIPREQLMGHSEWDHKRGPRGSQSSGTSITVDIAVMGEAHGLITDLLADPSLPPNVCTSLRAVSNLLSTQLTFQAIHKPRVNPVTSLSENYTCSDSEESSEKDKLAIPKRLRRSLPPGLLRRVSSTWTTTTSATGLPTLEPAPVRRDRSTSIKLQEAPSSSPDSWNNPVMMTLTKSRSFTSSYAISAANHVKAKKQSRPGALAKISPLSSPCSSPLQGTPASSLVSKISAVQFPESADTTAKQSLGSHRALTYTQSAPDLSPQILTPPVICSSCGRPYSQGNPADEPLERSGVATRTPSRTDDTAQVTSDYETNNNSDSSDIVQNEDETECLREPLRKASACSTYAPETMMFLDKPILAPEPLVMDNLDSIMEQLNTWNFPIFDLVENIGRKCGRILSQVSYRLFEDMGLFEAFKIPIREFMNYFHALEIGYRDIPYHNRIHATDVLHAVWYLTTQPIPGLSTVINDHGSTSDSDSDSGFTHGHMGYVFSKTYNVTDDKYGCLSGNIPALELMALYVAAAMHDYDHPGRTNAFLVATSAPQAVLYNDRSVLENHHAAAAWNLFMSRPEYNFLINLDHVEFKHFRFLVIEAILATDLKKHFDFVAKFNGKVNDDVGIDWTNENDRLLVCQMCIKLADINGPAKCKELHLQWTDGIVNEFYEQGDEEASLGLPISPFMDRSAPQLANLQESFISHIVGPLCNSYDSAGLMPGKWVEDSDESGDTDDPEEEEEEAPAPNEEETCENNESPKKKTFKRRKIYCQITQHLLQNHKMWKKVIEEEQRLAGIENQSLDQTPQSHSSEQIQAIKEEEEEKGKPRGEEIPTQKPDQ
5-hydroxytryptamine receptor 2B, sequence (P41595 whole entry): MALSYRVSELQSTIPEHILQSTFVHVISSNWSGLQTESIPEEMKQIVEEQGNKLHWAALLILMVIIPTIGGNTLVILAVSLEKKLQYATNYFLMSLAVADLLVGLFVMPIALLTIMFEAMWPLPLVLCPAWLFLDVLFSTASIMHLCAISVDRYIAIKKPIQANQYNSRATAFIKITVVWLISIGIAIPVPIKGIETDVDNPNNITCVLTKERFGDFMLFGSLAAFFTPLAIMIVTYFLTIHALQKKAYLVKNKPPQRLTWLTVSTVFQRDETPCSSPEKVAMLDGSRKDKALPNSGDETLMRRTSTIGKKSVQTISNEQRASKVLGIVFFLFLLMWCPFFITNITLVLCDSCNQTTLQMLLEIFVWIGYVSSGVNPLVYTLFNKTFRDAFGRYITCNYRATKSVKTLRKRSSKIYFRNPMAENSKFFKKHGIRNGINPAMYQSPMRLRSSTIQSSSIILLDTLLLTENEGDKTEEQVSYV
Sodium-dependent serotonin transporter, sequence (P31645 whole entry): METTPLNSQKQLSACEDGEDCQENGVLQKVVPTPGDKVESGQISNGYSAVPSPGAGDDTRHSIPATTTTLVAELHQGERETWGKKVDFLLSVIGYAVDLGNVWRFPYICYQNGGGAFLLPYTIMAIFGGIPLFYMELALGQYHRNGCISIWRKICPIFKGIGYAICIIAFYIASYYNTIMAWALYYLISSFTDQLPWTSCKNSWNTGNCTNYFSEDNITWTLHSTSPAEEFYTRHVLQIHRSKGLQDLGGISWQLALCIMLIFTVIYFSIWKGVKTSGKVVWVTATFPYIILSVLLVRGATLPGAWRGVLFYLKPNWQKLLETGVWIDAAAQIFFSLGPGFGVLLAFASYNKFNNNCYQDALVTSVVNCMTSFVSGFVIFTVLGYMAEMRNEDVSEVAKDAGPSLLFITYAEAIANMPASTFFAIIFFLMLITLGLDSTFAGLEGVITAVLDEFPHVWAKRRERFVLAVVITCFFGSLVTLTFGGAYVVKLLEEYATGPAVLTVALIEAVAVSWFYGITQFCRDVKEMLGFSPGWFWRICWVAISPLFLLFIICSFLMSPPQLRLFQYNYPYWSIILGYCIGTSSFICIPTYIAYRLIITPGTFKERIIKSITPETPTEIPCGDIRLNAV

Structure (SMILES)	AC50 [1] [µM]	AC50 [2] [µM]	AC50 [3] [µM]	AC50 [4] [µM]	AC50 [5] [µM]	AC50 (Progesterone receptor) [µM]	AC50 (Cannabinoid receptor 1) [µM]	AC50 [6] [µM]	AC50 [7] [µM]	AC50 [8] [µM]	AC50 (Endothelin-1 receptor) [µM]	AC50 [9] [µM]
CCC(C(=O)O)c1ccc(N2Cc3ccccc3C2=O)cc1 (centres undefined) [INDOBUFEN]	> 30	> 30	> 30	> 30	> 30	> 30	> 30	> 30	> 30	> 30	> 30	0.8
CC(C)OC(=O)CCC/C=C\C[C@@H]1[C@@H](CC[C@@H](O)CCc2ccccc2)[C@H](O)C[C@@H]1O [LATANOPROST]	> 30	> 30	> 30	> 30	> 30	> 30	> 30	> 30	> 30	> 30	> 30	> 30
CN1C(=O)C(O)N=C(c2ccccc2Cl)c2cc(Cl)ccc21 (centres undefined) [LORMETAZEPAM]	0.0014	> 30	17	> 30	> 30	> 30	> 30	> 30	> 30	> 10	> 30	> 10
CCC1(CC)C(=O)NCC(C)C1=O (centres undefined) [METHYPRYLON]	> 30	> 30	> 30	> 30	> 30	> 30	> 30	> 30	> 30	> 30	> 30	> 30
CCOC(=O)[N-]c1cn(N2CCOCC2)n[o+]1 [MOLSIDOMINE]	> 30	> 30	> 30	> 10	> 30	> 30	> 30	> 30	> 30	> 30	> 30	24
OC(CNCC(O)C1CCc2cc(F)ccc2O1)C1CCc2cc(F)ccc2O1 (centres undefined) [NEBIVOLOL]	> 30	3.2	> 30	> 30	> 30	> 30	24	> 30	0.75	> 30	> 30	> 30
O=C(O)/C=C/c1ccc(Cn2ccnc2)cc1 [OZAGREL]	> 30	> 30	> 30	> 30	> 30	> 30	> 30	> 30	> 30	> 30	> 30	> 30
